Where “and” joins values, the source holds several entries; their conditions need not be identical. Equal values may be shown once. Read-outs that look alike come from different tables or passages of the source.
What was measured:
[1] = system: ERR reporter HEK293 cells; assay: CellTiter-Fluor cell viability assay multiplexed with ERR reporter assay; type: cell-based; conditions: Homo sapiens, HEK293
Experimental: (§1) ERR or PGC/ERR reporter HEK293 cells suspended in culture medium without puromycin were dispensed at 2500 cells/5 μL/well in tissue culture–treated 1536-well white assay plates (Greiner Bio-One North America, Monroe, NC, USA) using a Thermo Scientific Multidrop Combi (ThermoFisher Scientific, Inc.). […] After the cells were incubated at 37 °C with 5% CO2 for 6 h, 23 nL of compounds or control, XTC790, was transferred into the assay plates using a Wako Pintool station (Wako Automation, San Diego, CA, USA). The assay plates were incubated at 37 °C for 18 h, followed by the addition of 5 μL ONE-Glo luciferase reagent (Promega, Madison, WI, USA) using a Flying Reagent Dispenser (Aurora Discovery, Carlsbad, CA, USA). After 30 min of incubation at room temperature, the luminescence intensity of the assay plates was quantified using a ViewLux plate reader (PerkinElmer, Shelton, CT, USA). The assays were performed three times for each compound concentration. These ERR and PGC/ERR reporter assays were multiplexed with the CellTiter-Fluor Cell Viability Assay (Promega), a fluorescence-based cell viability assay, to assess compound cytotoxicity.
The qHTS data were analyzed as described previously. […] The DMSO-only compound plates at the beginning and end of the compound plate stack were used to correct the data set by applying an in-house pattern correction algorithm. The half maximum inhibition values (IC50) for each compound and maximum response (efficacy) values were obtained by fitting the concentration-response curves of each compound to a four-parameter Hill equation [91]. […] For each reading, the activity outcome of a test compound was first categorized by the average curve rank from the triplicate runs and the reproducibility calls. The final activity outcome of each compound was based on the ERR antagonist readout activity and cell viability counter screen.

[2] = system: PGC/ERR reporter HEK293 cells; assay: CellTiter-Fluor cell viability assay multiplexed with PGC/ERR reporter assay; type: cell-based; conditions: Homo sapiens
Experimental: as §1
The qHTS data were analyzed as described previously. Each titration point was normalized relative to the positive control compound (XCT790 = −100%) and DMSO-only wells (0%) according to the following equation: % Activity = [(Vcompound − VDMSO)/(VDMSO − Vpos)] × 100, where Vcompound denotes the compound well values, Vpos denotes the median value of the positive control wells, and VDMSO denotes the median values of the DMSO-only wells. The DMSO-only compound plates at the beginning and end of the compound plate stack were used to correct the data set by applying an in-house pattern correction algorithm. The half maximum inhibition values (IC50) for each compound and maximum response (efficacy) values were obtained by fitting the concentration-response curves of each compound to a four-parameter Hill equation [91]. Compounds were designated as Class 1–4 according to the type of concentration–response curve observed. For each reading, the activity outcome of a test compound was first categorized by the average curve rank from the triplicate runs and the reproducibility calls. The final activity outcome of each compound was based on the ERR antagonist readout activity and cell viability counter screen.

COX8α = assay: qRT-PCR mRNA expression of ERR downstream gene COX8α; type: cell-based; conditions: ERR reporter cells, vs GAPDH, DMSO = 0%
Experimental: (§2) Total RNA was isolated from treated ERR reporter cells using an RNeasy Mini Kit (Qiagen, Germantown, MD, USA), homogenized using a QIAshredder (Qiagen), and reverse transcribed with a High-Capacity RNA-to-cDNA™ Kit (ThermoFisher Scientific, Inc.) following the manufacturers’ instructions. Expression of ERRα, COX8α, IDH3α, PPARα, COX4I1, and cytochrome c genes was normalized against GAPDH. All primers were purchased from ThermoFisher Scientific, Inc. Real-time PCR assays were performed in 384-well plates on a QuantStudio 5 (Applied Biosystems, Foster City, CA, USA) with TaqMan™ Gene Expression Master Mix (ThermoFisher Scientific, Inc.). Induction values were calculated using the equation: Fold = 2^ΔΔCt, where ΔCt represents the differences in cycle threshold numbers between each of the target genes and GAPDH, and ΔΔCt represents the relative change in these differences between control and treatment groups. Experimental data are presented as a mean of triplicate determinations ± SD. Statistical comparisons were made by t-test, while the statistical significance was set at p values of <0.05 (light blue), <0.01 (medium blue), and <0.001 (dark blue).

IDH3α = assay: qRT-PCR mRNA expression of ERR downstream gene IDH3α; type: cell-based; conditions: ERR reporter cells, vs GAPDH, DMSO = 0%
Experimental: as §2

PPARα = assay: qRT-PCR mRNA expression of ERR downstream gene PPARα; type: cell-based; conditions: ERR reporter cells, vs GAPDH, DMSO = 0%
COX4I1 = assay: qRT-PCR mRNA expression of ERR downstream gene COX4I1; type: cell-based; conditions: ERR reporter cells, vs GAPDH, DMSO = 0%
Experimental: as §2, with “Experimental data are presented as a mean of triplicate determinations ± SD. Statistical comparisons were made by t-test, while the statistical significance was set at p values of <0.05 (light blue), <0.01 (medium blue), and <0.001 (dark blue).” left out

cytochrome c = assay: qRT-PCR mRNA expression of ERR downstream gene cytochrome c; type: cell-based; conditions: ERR reporter cells, vs GAPDH, DMSO = 0%
Experimental: as §2

[3] = system: Nrf2/antioxidant response element (ARE); assay: Nrf2/ARE-HepG2 β-lactamase reporter agonist assay; type: cell-based; conditions: agonist mode, heatmap outcome
Experimental: After the assay plates were incubated at 37 °C for 5–6 h, 23 nL of compounds dissolved in DMSO or positive controls were transferred to the assay plates via a Wako Pintool station (Wako). Except for ARE and p53, all other assays received 1 µL/well agonist (10 nM R1881 for AR; 0.5 and 5 nM β-estradiol for ERα and ERβ respectively; 300 µM CDCA for FXR; 50 nM Rosiglitazone for PPARγ; and 5 nM R5020 for PR) or assay medium using a Flying Reagent Dispenser (FRD). The assay plates were incubated for 16 h (AR, Nrf2/ARE, ERβ, FXR, p53, and PR), 17 h (PPARγ), or 18 h (ERα) at 37 °C, and 1 µL/well LiveBLAzer™ FRET-B/G CCF4-AM substrate (ThermoFisher Scientific, Inc.) detection mix was added using an FRD and the plates were incubated at room temperature for 2 h. […] Data were expressed as the ratio of 460/530 nm emission values.

[4] = target: T1, ERRα with PGC-1α (PGC/ERR pathway) (Homo sapiens, UniProt P11474); assay: PGC/ERR reporter (luciferase) qHTS assay, PGC/ERR-HEK293; conditions: for EC50: mean ± SD, triplicate; for PGC/ERR-HEK293 Follow-Up Efficacy: follow-up screen; for PGC/ERR-HEK293 Follow-Up Efficacy / PGC/ERR-HEK293 Primary Efficacy: negative = antagonism, positive = agonism; for activity in the ERR/PGC assay: in words; for PGC/ERR-HEK293 Primary Efficacy: primary qHTS
T1 sequence (P11474 1-423): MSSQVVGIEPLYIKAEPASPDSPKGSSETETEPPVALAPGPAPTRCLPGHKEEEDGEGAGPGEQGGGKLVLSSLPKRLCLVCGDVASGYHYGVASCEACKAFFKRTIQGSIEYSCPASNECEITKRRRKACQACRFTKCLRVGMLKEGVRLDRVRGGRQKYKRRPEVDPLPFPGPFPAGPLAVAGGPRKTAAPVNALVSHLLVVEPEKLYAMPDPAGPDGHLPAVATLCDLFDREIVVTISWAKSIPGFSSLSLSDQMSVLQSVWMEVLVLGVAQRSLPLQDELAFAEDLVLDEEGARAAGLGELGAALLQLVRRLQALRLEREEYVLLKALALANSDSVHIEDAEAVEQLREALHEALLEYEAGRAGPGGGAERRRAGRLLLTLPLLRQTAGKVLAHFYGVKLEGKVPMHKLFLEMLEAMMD
Experimental: (§3) The ERR reporter HEK293 cells were cultured in high glucose DMEM medium (ThermoFisher Scientific, Inc., Waltham, MA, USA) supplemented with 10% fetal bovine serum (FBS; ThermoFisher Scientific, Inc.), 4 mM of L-glutamine (ThermoFisher Scientific, Inc.), 1 mM of sodium pyruvate (ThermoFisher Scientific, Inc.), 100 U/mL of penicillin and 100 mg/mL of streptomycin (ThermoFisher Scientific, Inc.). PGC/ERR reporter HEK293 cells were cultured in the same medium as the ERR reporter HEK293 cells with an additional 1 μg/mL puromycin (ThermoFisher Scientific, Inc.) as the selection marker for PGC-1α expression.
(§4) The DMSO-only compound plates at the beginning and end of the compound plate stack were used to correct the data set by applying an in-house pattern correction algorithm [90]. The half maximum inhibition values (IC50) for each compound and maximum response (efficacy) values were obtained by fitting the concentration-response curves of each compound to a four-parameter Hill equation [91]. […] For each reading, the activity outcome of a test compound was first categorized by the average curve rank from the triplicate runs and the reproducibility calls. The final activity outcome of each compound was based on the ERR antagonist readout activity and cell viability counter screen.

[5] = target: T2, estrogen-related receptor alpha (ERRα) (Homo sapiens, UniProt P11474); assay: ERR reporter (luciferase) antagonist qHTS assay, ERR-HEK293; conditions: for ERR-HEK293 Follow-Up Efficacy: follow-up screen
T2 sequence (P11474 1-423): T1 sequence (P11474 1-423)
Experimental: as §3, §4

[6] = follow-up screen, viability, read-out: ERR-HEK293 Follow-Up Viability EC50 (converted)
[7] = primary qHTS, viability counter screen, read-out: ERR-HEK293 Primary Viability EC50 (converted)
[8] = HEK293, follow-up screen, read-out: PGC/ERR-HEK293 Follow-Up Viability EC50 (converted)
[9] = HEK293, primary qHTS, read-out: PGC/ERR-HEK293 Primary Viability EC50 (converted)
[10] = PGC/ERR-HEK293 Follow-Up EC50, follow-up screen
[11] = PGC/ERR-HEK293 Primary EC50, primary qHTS, 18 h
[12] = ERR-HEK293 Follow-Up EC50, follow-up (confirmation) screen, mean ± SD, triplicate
[13] = ERR-HEK293 Primary EC50, primary qHTS, 18 h, 15 concentrations, mean ± SD, triplicate

Row | EC50 [4, 10] | EC50 [4, 11] | PGC/ERR-HEK293 Follow-Up Efficacy [4] | activity in the ERR/PGC assay [4] | PGC/ERR-HEK293 Primary Efficacy [4] | EC50 [5, 12] | EC50 [5, 13] | ERR-HEK293 Follow-Up Efficacy ([5]; relative to XCT790 = −100%) | Compound | EC50 [1, 6] | EC50 [1, 7] | EC50 [2, 8] | EC50 [2, 9] | activity in the Nrf2-ARE assay [3] | further results
1 | 189 ± 39.6 nM | 61.5 ± 19.8 nM | −150 ± 8.02% | antagonism | −121 ± 7.36% | 61.7 ± 7.86 nM | 55.2 ± 3.74 nM | −126 ± 10.9% | CC(C)C[C@H](NC(=O)[C@H](CCc1ccccc1)NC(=O)CN1CCOCC1)C(=O)N[C@@H](Cc1ccccc1)C(=O)N[C@@H](CC(C)C)C(=O)[C@@]1(C)CO1 [Carfilzomib] | 274 nM | 178 nM | 471 nM | 1360 nM | active agonists | Percent inhibition of mRNA gene expression, COX8α (COX8α; 60 nM): 39.6% and 39.6 ± 1.81%; Percent inhibition of mRNA gene expression, IDH3α (IDH3α; 60 nM): 1.73 ± 0.76%; Percent inhibition of mRNA gene expression, PPARα (PPARα; 60 nM): 7.39 ± 4.61%; Percent inhibition of mRNA gene expression, COX4I1 (COX4I1; 60 nM): 37.8 ± 5.12%; Percent inhibition of mRNA gene expression, Cytochrome C (cytochrome c; 60 nM): 44.2% and 44.2 ± 0.70%; EC50 ([5]; potency, ERR antagonist assay, primary screen): 55 nM; ERR-HEK293 Primary Efficacy ([5]; primary qHTS, relative to XCT790 = −100%, DMSO = 0%): −107% and −107 ± 2.77%
2 | 9.62 ± 4.52 nM | 16.9 ± 5.54 nM | −116 ± 12.7% | antagonism | −92.2 ± 11.8% | 16.7 ± 6.08 nM | 17 ± 7.81 nM | −125 ± 11.0% | CC(C)C[C@H](NC(=O)[C@H](Cc1ccccc1)NC(=O)c1cnccn1)B(O)O [Bortezomib] | 78 nM | 65.6 nM | 64.3 nM | 62.8 nM | active agonists | IC50 ([1]; primary screen, concurrent with ERR antagonist assay): ~66 nM; Percent inhibition of mRNA gene expression, IDH3α (IDH3α; 20 µM): 17.6% and 17.6 ± 4.66%; Percent inhibition of mRNA gene expression, PPARα (PPARα; 20 µM): 14.0 ± 5.17%; Percent inhibition of mRNA gene expression, COX4I1 (COX4I1; 20 µM): 35.3 ± 3.49%; Percent inhibition of mRNA gene expression, Cytochrome C (cytochrome c; 20 µM): 48.3% and 48.3 ± 1.92%
3 | – | – | – | – | – | – | – | – | Acriflavine hydrochloride | – | – | – | – | inconclusive | Percent inhibition of mRNA gene expression, COX8α (COX8α; 3 µM): 30.2 ± 18.2%; Percent inhibition of mRNA gene expression, IDH3α (IDH3α; 3 µM): 74.2% and 74.2 ± 9.92%; Percent inhibition of mRNA gene expression, COX4I1 (COX4I1; 3 µM): 4.76 ± 8.24%; Percent inhibition of mRNA gene expression, Cytochrome C (cytochrome c; 3 µM): 41.8% and 41.8 ± 3.72%

From paper PMC6429183, “Identification of Compounds That Inhibit Estrogen-Related Receptor Alpha Signaling Using High-Throughput Screening Assays” (Molecules, 2019)
